From patent US20070219159A1, “CYCLODEXTRIN COMPOSITIONS AND METHODS OF TREATING VIRAL INFECTIONS” (priority 2002, published 2007)
Read-outs that look alike come from different tables or passages of the source.

Legend:
[1] = system: HCV; assay: In vitro anti-HCV assay in HCV RNA-replicating cell line AVA5; type: cell-based; conditions: HCV
Procedure: (§1) The antiviral activity of test compounds were assayed in the stably HCV RNA-replicating cell line. AVA5, derived by transfection of the human hepatoblastoma cell line, Huh^7 (Blight et al., 2000). Experimental drugs were added to dividing cultures once daily for three days. Media was changed with each addition of compound. Cultures generally started the assays at 50% confluence and reached confluence during the last day of treatment. HCV RNA and cellular β-actin RNA levels were assessed 24 hours after the last dose of compound using dot blot hybridization. Assays were conducted using a single dose of test compound (in triplicate cultures).
(§2) Both HCV and β-actin RNA levels in the treated cultures were expressed as a percentage of the mean levels of RNA detected in untreated cultures. β-actin RNA levels were used both as a measure of toxicity, and to normalize the amount of cellular RNA in each sample. A level of 30% or less HCV RNA (relative to control cultures) was considered to be a positive antiviral effect, and a level of 50% or less β-actin RNA (relative to control cultures) is considered to be a cytotoxic effect.
(§3) Dividing cultures of AVAB cells were treated once daily for three days (media was changed with each addition of compound) with 4 concentrations of test compounds (3 cultures per concentration). A total of 6 untreated control cultures, and triplicate cultures treated with 10, 3, and 1 IU/ml α-interferon (active antiviral with no cytotoxicity), and 100, 10, and 1 μM ribavir ([…]) served as controls. HCV RNA and cellular β-actin FNA levels were assessed 24 hours after the last dose of compound using dot blot hybridization. β-actin RNA levels were used to normalize the amount of cellular RNA in each sample.
(§4) Toxicity analyses were performed on separate plates from those used for the antiviral assays. Cells for the toxicity analyses were cultured and treated with test compounds with the same schedule and under identical culture conditions used for the antiviral evaluations. Each compound was tested at 4 concentrations, each in triplicate cultures. Uptake of neutral red dye was used to determine the relative level of toxicity 24 hours following the last treatment. The absorbance of internalized dye at […] (A510) was used for the quantitative analysis. Values in test cultures were compared to 9 cultures of untreated cells maintained on the same plate as the test cultures.
(§5) Assays similar to those described above were conducted.

[2] = system: HSV-1 strain KOS1.1; assay: CPE reduction assay in Vero cells, HSV-1; type: cell-based; conditions: HSV-1; final concentrations up to 8 mg/ml
[3] = system: HSV-2 strain MS; assay: CPE reduction assay in Vero cells, HSV-2; type: cell-based; conditions: HSV-2; final concentrations up to 8 mg/ml
[4] = system: HSV-1; conditions: in general 1000-fold less drug than Examples 1-6 and 10
[5] = system: HSV-2; conditions: in general 1000-fold less drug than Examples 1-6 and 10
[6] = system: VZV
[7] = system: EBV
[8] = system: HCMV
[9] = system: MCMV
[10] = system: HHV-6
[11] = system: HHV-7
[12] = system: Flu A
[13] = system: Flu B
[14] = system: RSV
[15] = system: PIV
[16] = system: MV
[17] = system: HRV
[18] = system: Ad
[19] = system: Resp syncytial
[20] = system: Rhino
[21] = system: Vaccinia
[22] = system: Cowpox
[23] = system: Measles
[24] = system: VEE
[25] = system: Punta Toro
[26] = system: Pichinde
[27] = system: Yellow fever
[28] = system: West Nile; assay: In vitro antiviral screening (Table 1), West Nile
[29] = In vitro anti-HCV assay in HCV RNA-replicating cell line AVA5; type: cell-based; conditions: human, AVA5 cells (HCV RNA-replicating Huh7 line); toxicity control, no antiviral activity; read-out: approximate CC90
Procedure: as §1, §2, §3, §4, §5

[30] = system: vaccinia Western Reserve strain (WR); type: cell-based
[31] = system: Vero cells; conditions: 48 hours exposure; extrapolated from cell killing graph (FIG. 5)
[32] = HSV-infected cells; cited from earlier work

OC[C@H]1O[C@@H]2O[C@H]3[C@H](O)[C@@H](O)[C@@H](O[C@H]4[C@H](O)[C@@H](O)[C@@H](O[C@H]5[C@H](O)[C@@H](O)[C@@H](O[C@H]6[C@H](O)[C@@H](O)[C@@H](O[C@H]7[C@H](O)[C@@H](O)[C@@H](O[C@H]1[C@H](O)[C@H]2O)O[C@@H]7CO)O[C@@H]6CO)O[C@@H]5CO)O[C@@H]4CO)O[C@@H]3CO [ACD, α-cyclodextrin]
S.I. for HCV [1]: 0.72
antiviral activity in infected Vero cells [2]: no significant antiviral activity
antiviral activity in infected Vero cells [3]: no significant antiviral activity
SI = CC50/EC50 [4]: 0
SI = CC50/EC50 [5]: 0
SI = CC50/EC50 [6]: 0
SI = CC50/EC50 [7]: >1.5
SI = CC50/EC50 [8]: 0
SI = CC50/EC50 [9]: 0
SI = CC50/EC50 [10]: 0
SI = CC50/EC50 [11]: 0
SI = CC50/EC50 [12]: 0
SI = CC50/EC50 [13]: 0
SI = CC50/EC50 [14]: 0
SI = CC50/EC50 [15]: 0
SI = CC50/EC50 [16]: 0
SI = CC50/EC50 [17]: 0
SI = CC50/EC50 [18]: 0
SI = CC50/EC50 [19]: 0
SI = CC50/EC50 [20]: 0
SI = CC50/EC50 [21]: 0
SI = CC50/EC50 [22]: 0
SI = CC50/EC50 [23]: 0
SI = CC50/EC50 [24]: 0
SI = CC50/EC50 [25]: 0
SI = CC50/EC50 [26]: 0
SI = CC50/EC50 [27]: 0
SI = CC50/EC50 [28]: 0

NC(=O)c1ncn([C@@H]2O[C@H](CO)[C@@H](O)[C@H]2O)n1 [ribavirin, reference compound]
CC90 at 3 days [29]: ~100 µM

methyl-β-cyclodextrin [MBCD]
S.I. for HCV [1]: 1.69
anti-vaccinia virus activity (cytopathic effect versus untreated wells) ([30]; MBCD 4 to 4.5 mg/ml, β-CD 7.2 mg/ml, pre- and post-infection, 48 hours): much fewer and smaller areas of cytopathic effect
concentration at which anti-vaccinia virus activity was observed ([30]; flat portion of the cell killing curve): < 4.5 mg/mL
SI = CC50/EC50 ([12]; Flu A): 0
SI = CC50/EC50 [16]: 0
SI = CC50/EC50 [24]: 0
SI = CC50/EC50 ([25]; Punta Toro): 0
SI = CC50/EC50 [26]: 0
CC50 at 48 hours for Vero cells [31]: approximately 5.5 mg/ml
SI = CC50/EC50 [28]: 0 (?)

penciclovir triphosphate
intracellular half life [32]: 12 h
